Assay results reported in patent publication US10626144B2, “Peptide derivatives and uses thereof” (Nosopharm, priority 2014, dated 2020).
Square brackets hold non-standard residues; d marks the D form. Peptide text beside a SMILES is read from it. * marks the point of attachment. Phe(4-NH2) = Nc1ccc(C[C@H](N)C(=O)O)cc1; Dab(3S-OH) = NC[C@H](O)[C@H](N)C(=O)O; 2Pal = N[C@@H](Cc1ccccn1)C(=O)O; 3Pal = N[C@@H](Cc1cccnc1)C(=O)O; 4Pal = N[C@@H](Cc1ccncc1)C(=O)O; ΔZArg = N=C(N)NCC/C=C(\N)C(=O)O; Cit = NC(=O)NCCC[C@H](N)C(=O)O; aThr = C[C@H](O)[C@H](N)C(=O)O; AllylGly = C=CC[C@H](N)C(=O)O; NMeK = CN[C@@H](CCCCN)C(=O)O; hLys = NCCCCC[C@H](N)C(=O)O; dOrn = NCCC[C@@H](N)C(=O)O; NH(CH2)4NH2 = NCCCCN*

Experiments:
Test in all cases: MIC, broth microdilution (CLSI), reference strain
Settings in all cases: CAMHB
[1] = tested on: Pseudomonas aeruginosa ATCC 27853
[2] = tested on: Escherichia coli ATCC 25922
[3] = tested on: Staphylococcus aureus ATCC 13709
[4] = tested on: Acinetobacter baumannii ATCC 19606

Pa: MIC Pseudomonas aeruginosa ATCC 27853 [1]	Ec: MIC Escherichia coli ATCC 25922 [2]	Sa: MIC Staphylococcus aureus ATCC 13709 [3]	Ab: MIC Acinetobacter baumannii ATCC 19606 [4]	SMILES
− (>32 μg/mL)	+ (≤32 μg/mL)	+ (≤32 μg/mL)	− (>32 μg/mL)	C[C@H](NC(=O)[C@@H](NC(=O)[C@@H](N)CCCCN)[C@@H](O)CN)C(=O)NCC(=O)N[C@H](CCCN)C(=O)N1CCC[C@H]1C(=O)N[C@@H](Cc1cccnc1)C(=O)N[C@@H](CCCCN)C(=O)N/C(=C\CCNC(=N)N)C(=O)O [24.107] (H-K[Dab(3S-OH)]AG[dOrn]P[3Pal]K[ΔZArg]-OH)
− (>32 μg/mL)	− (>32 μg/mL)	++ (≤8 μg/mL)	− (>32 μg/mL)	C[C@H](NC(=O)[C@@H](NC(=O)[C@@H](N)CCCCN)[C@@H](O)CN)C(=O)NCC(=O)N[C@H](CCCN)C(=O)N1CCC[C@H]1C(=O)N[C@@H](Cc1cnc[nH]1)C(=O)N[C@@H](CCCCCN)C(=O)N[C@H](CCCNC(=N)N)C(N)=O [24.121] (H-K[Dab(3S-OH)]AG[dOrn]PH[hLys][dR]-NH2)
− (>32 μg/mL)	− (>32 μg/mL)	− (>32 μg/mL)	− (>32 μg/mL)	C[C@H](NC(=O)[C@@H](NC(=O)[C@@H](N)CCCCN)[C@@H](O)CN)C(=O)NCC(=O)N[C@H](CCCN)C(=O)N1CCC[C@H]1C(=O)N[C@@H](Cc1cnc[nH]1)C(=O)N[C@@H](CCCCN)C(=O)N[C@H](CCCNC(=N)N)C(=O)O [24.122] (H-K[Dab(3S-OH)]AG[dOrn]PHK[dR]-OH)
− (>32 μg/mL)	− (>32 μg/mL)	+ (≤32 μg/mL)	− (>32 μg/mL)	CC[C@H](C)[C@H](NC(=O)/C(=C/CCNC(=N)N)NC(=O)[C@H](CCCCN)NC(=O)[C@H](Cc1cnc[nH]1)NC(=O)[C@@H]1CCCN1C(=O)[C@@H](CCCN)NC(=O)CNC(=O)[C@H](C)NC(=O)[C@@H](NC(=O)[C@@H](N)CCCCN)[C@@H](O)CN)C(=O)O [24.123] (H-K[Dab(3S-OH)]AG[dOrn]PHK[ΔZArg]I-OH)
− (>32 μg/mL)	+ (≤32 μg/mL)	+ (≤32 μg/mL)	− (>32 μg/mL)	CN[C@@H](CCCCN)C(=O)N[C@H](C(=O)N[C@@H](C)C(=O)NCC(=O)N[C@H](CCCN)C(=O)N1CCC[C@H]1C(=O)N[C@@H](Cc1cnc[nH]1)C(=O)N[C@@H](CCCCN)C(=O)N/C(=C\CCNC(=N)N)C(=O)O)[C@@H](O)CN [24.126] (H-[NMeK][Dab(3S-OH)]AG[dOrn]PHK[ΔZArg]-OH)

The remaining lines, values behind:

SMILES	Pa: MIC Pseudomonas aeruginosa ATCC 27853 [1]	Ec: MIC Escherichia coli ATCC 25922 [2]	Sa: MIC Staphylococcus aureus ATCC 13709 [3]	Ab: MIC Acinetobacter baumannii ATCC 19606 [4]
C[C@H](NC(=O)[C@@H](NC(=O)[C@@H](N)CCCCN)[C@@H](O)CN)C(=O)NCC(=O)N[C@H](CCCN)C(=O)N1CCC[C@H]1C(=O)N[C@@H](Cc1ccc(N)cc1)C(=O)N[C@@H](CCCCN)C(=O)N/C(=C\CCNC(=N)N)C(=O)O [24.105] (H-K[Dab(3S-OH)]AG[dOrn]P[Phe(4-NH2)]K[ΔZArg]-OH)	− (>32 μg/mL)	+ (≤32 μg/mL)	+ (≤32 μg/mL)	− (>32 μg/mL)
C[C@H](NC(=O)[C@@H](NC(=O)[C@@H](N)CCCCN)[C@@H](O)CN)C(=O)NCC(=O)N[C@H](CCCN)C(=O)N1CCC[C@H]1C(=O)N[C@@H](Cc1ccccn1)C(=O)N[C@@H](CCCCN)C(=O)N/C(=C\CCNC(=N)N)C(=O)O [24.106] (H-K[Dab(3S-OH)]AG[dOrn]P[2Pal]K[ΔZArg]-OH)	− (>32 μg/mL)	+ (≤32 μg/mL)	+ (≤32 μg/mL)	− (>32 μg/mL)
C[C@H](NC(=O)[C@@H](NC(=O)[C@@H](N)CCCCN)[C@@H](O)CN)C(=O)NCC(=O)N[C@H](CCCN)C(=O)N1CCC[C@H]1C(=O)N[C@@H](Cc1ccncc1)C(=O)N[C@@H](CCCCN)C(=O)N/C(=C\CCNC(=N)N)C(=O)O [24.108] (H-K[Dab(3S-OH)]AG[dOrn]P[4Pal]K[ΔZArg]-OH)	− (>32 μg/mL)	− (>32 μg/mL)	+ (≤32 μg/mL)	− (>32 μg/mL)
C[C@H](NC(=O)[C@@H](NC(=O)[C@@H](N)CCCCN)[C@@H](O)CN)C(=O)NCC(=O)N[C@H](CCCN)C(=O)N1CCC[C@H]1C(=O)N[C@H](C(=O)N[C@@H](CCCCN)C(=O)N/C(=C\CCNC(=N)N)C(=O)O)[C@H](C)O [24.110] (H-K[Dab(3S-OH)]AG[dOrn]P[aThr]K[ΔZArg]-OH)	− (>32 μg/mL)	− (>32 μg/mL)	+ (≤32 μg/mL)	− (>32 μg/mL)
C=CC[C@H](NC(=O)[C@@H]1CCCN1C(=O)[C@@H](CCCN)NC(=O)CNC(=O)[C@H](C)NC(=O)[C@@H](NC(=O)[C@@H](N)CCCCN)[C@@H](O)CN)C(=O)N[C@@H](CCCCN)C(=O)N/C(=C\CCNC(=N)N)C(=O)O [24.111] (H-K[Dab(3S-OH)]AG[dOrn]P[AllylGly]K[ΔZArg]-OH)	− (>32 μg/mL)	+ (≤32 μg/mL)	++ (≤8 μg/mL)	− (>32 μg/mL)
C[C@H](NC(=O)[C@@H](NC(=O)[C@@H](N)CCCCN)[C@@H](O)CN)C(=O)NCC(=O)N[C@H](CCCN)C(=O)N1CCC[C@H]1C(=O)N[C@@H](CCCNC(N)=O)C(=O)N[C@@H](CCCCN)C(=O)N/C(=C\CCNC(=N)N)C(=O)O [24.116] (H-K[Dab(3S-OH)]AG[dOrn]P[Cit]K[ΔZArg]-OH)	− (>32 μg/mL)	− (>32 μg/mL)	+ (≤32 μg/mL)	− (>32 μg/mL)
C[C@H](NC(=O)[C@@H](NC(=O)[C@@H](N)CCCCN)[C@@H](O)CN)C(=O)NCC(=O)N[C@H](CCCN)C(=O)N1CCC[C@H]1C(=O)N[C@@H](CCC(N)=O)C(=O)N[C@@H](CCCCN)C(=O)N/C(=C\CCNC(=N)N)C(=O)O [24.117] (H-K[Dab(3S-OH)]AG[dOrn]PQK[ΔZArg]-OH)	− (>32 μg/mL)	− (>32 μg/mL)	+ (≤32 μg/mL)	− (>32 μg/mL)
C[C@H](NC(=O)[C@@H](NC(=O)[C@@H](N)CCCCN)[C@@H](O)CN)C(=O)NCC(=O)N[C@H](CCCN)C(=O)N1CCC[C@H]1C(=O)N[C@@H](CCC(=O)O)C(=O)N[C@@H](CCCCN)C(=O)N/C(=C\CCNC(=N)N)C(=O)N[C@@H](CCCCN)C(=O)NCCCCN [24.118] (H-K[Dab(3S-OH)]AG[dOrn]PEK[ΔZArg]K-{NH(CH2)4NH2})	− (>32 μg/mL)	− (>32 μg/mL)	++ (≤8 μg/mL)	− (>32 μg/mL)
COC(=O)CC[C@H](NC(=O)[C@@H]1CCCN1C(=O)[C@@H](CCCN)NC(=O)CNC(=O)[C@H](C)NC(=O)[C@@H](NC(=O)[C@@H](N)CCCCN)[C@@H](O)CN)C(=O)N[C@@H](CCCCN)C(=O)N/C(=C\CCNC(=N)N)C(=O)O [24.120] (H-K[Dab(3S-OH)]AG[dOrn]PE(OMe)K[ΔZArg]-OH)	− (>32 μg/mL)	+ (≤32 μg/mL)	− (>32 μg/mL)	− (>32 μg/mL)
